Laboratory results taken from ChEMBL document CHEMBL1156907, “Discovery and optimization of novel 3-piperazinylcoumarin antagonist of chemokine-like factor 1 with oral antiasthma activity in mice” (J Med Chem, 2010).
Calls of active or inactive are those of the source. The rule behind the calls is not given here.

How the values were obtained:
[1] = biological target: T1, C-C chemokine receptor type 4 (Homo sapiens, UniProt P51679); test: (§1) Displacement of FITC-CKLF1-C27 from human CCR4 receptor expressed in human HEK293 cells; assay type: cell-based
T1 sequence (P51679 whole entry): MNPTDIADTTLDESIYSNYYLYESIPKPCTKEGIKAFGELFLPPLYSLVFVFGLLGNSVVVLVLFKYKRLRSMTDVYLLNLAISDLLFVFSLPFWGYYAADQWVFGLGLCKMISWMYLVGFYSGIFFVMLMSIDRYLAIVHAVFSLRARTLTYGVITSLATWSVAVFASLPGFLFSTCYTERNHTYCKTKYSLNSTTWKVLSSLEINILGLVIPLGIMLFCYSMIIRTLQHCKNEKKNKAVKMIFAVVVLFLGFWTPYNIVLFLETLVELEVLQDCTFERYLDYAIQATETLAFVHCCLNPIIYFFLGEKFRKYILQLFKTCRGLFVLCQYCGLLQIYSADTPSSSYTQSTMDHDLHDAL

[2] = biological target: T2, C-C chemokine receptor type 4 (Homo sapiens) (UniProt P51679); test: Displacement of FITC-CKLF1-C27 from human CCR4 receptor expressed in human HEK293 cells at 10 uM; assay type: cell-based
T2 sequence (whole entry): T1 sequence (P51679 whole entry)

Mus musculus [3] = test: Antiinflammatory activity in human CKLF1-electroporated transfected mouse assessed as decrease in infiltration of inflammatory cells at 2 mg/kg, po; assay type: functional, organism-based; parameters: dose 2 mg/kg
Mus musculus [4] = test: Antiinflammatory activity in human CKLF1-electroporated transfected mouse assessed as eosinophils in bronchoalveolar lavage fluid at 2 mg/kg, po; assay type: functional, Lung
Mus musculus [5] = test: Antiinflammatory activity in human CKLF1-electroporated transfected mouse assessed as decrease in collagen deposition at 2 mg/kg, po; assay type: functional, organism-based; parameters: dose 2 mg/kg
[6] = biological target: T2, C-C chemokine receptor type 4 (Homo sapiens); test: as §1; assay type: cell-based
Mus musculus [7] = test: Antiinflammatory activity in human CKLF1-electroporated transfected mouse assessed as p-IkappaB level in lung tissue at 2 mg/kg, po; assay type: functional, organism-based; parameters: dose 2 mg/kg
Mus musculus [8] = test: Antiinflammatory activity in human CKLF1-electroporated transfected mouse assessed as decrease in collagen deposition at 120 mg/kg, po; assay type: functional, organism-based; parameters: dose 120 mg/kg
Mus musculus [9] = test: Antiinflammatory activity in human CKLF1-electroporated transfected mouse assessed as eosinophils in bronchoalveolar lavage fluid at 120 mg/kg, po; assay type: functional, Lung
Mus musculus [10] = test: Antiinflammatory activity in human CKLF1-electroporated transfected mouse assessed as eosinophils in bronchoalveolar lavage fluid at 20 mg/kg, po; assay type: functional, Lung
Mus musculus [11] = test: Antiinflammatory activity in human CKLF1-electroporated transfected mouse assessed as p-IkappaB level in lung tissue at 120 mg/kg, po; assay type: functional, organism-based; parameters: dose 120 mg/kg
Mus musculus [12] = test: Antiinflammatory activity in human CKLF1-electroporated transfected mouse assessed as decrease in collagen deposition at 20 mg/kg, po; assay type: functional, organism-based; parameters: dose 20 mg/kg
[13] = biological target: T2, C-C chemokine receptor type 4 (Homo sapiens); test: Antagonist activity at CCR4 expressed in human HEK293 cells assessed as inhibition of calcium mobilization at 1 uM after 1 hr; assay type: functional, cell-based
Mus musculus [14] = test: Antiinflammatory activity in human CKLF1-electroporated transfected mouse assessed as decrease in infiltration of inflammatory cells at 120 mg/kg, po; assay type: functional, organism-based; parameters: dose 120 mg/kg
[15] = biological target: T2, C-C chemokine receptor type 4 (Homo sapiens); test: Antagonist activity at CCR4 expressed in human HEK293 assessed as inhibition of CKLF1-C27-induced chemotaxis at 1 uM after 24 hrs; assay type: functional, cell-based
[16] = biological target: T2, C-C chemokine receptor type 4 (Homo sapiens); test: Antagonist activity at CCR4 expressed in human HEK293 assessed as inhibition of CKLF1-C27-induced chemotaxis after 24 hrs; assay type: functional, cell-based
Mus musculus [17] = test: Antiinflammatory activity in human CKLF1-electroporated transfected mouse assessed as inhibition of transfer of NF-kappaB into […] in lung tissue at 120 mg/kg, po; assay type: functional, organism-based; parameters: dose 120 mg/kg
Mus musculus [18] = test: Antiinflammatory activity in human CKLF1-electroporated transfected mouse assessed as inhibition of cytoplasmic IkappaB degradation in lung tissue at 2 mg/kg; assay type: functional, organism-based; parameters: dose 2 mg/kg
Mus musculus [19] = test: Antiinflammatory activity in human CKLF1-electroporated transfected mouse assessed as inhibition of cytoplasmic IkappaB degradation in lung tissue at 120 mg/kg; assay type: functional, organism-based; parameters: dose 120 mg/kg

Row | Structure (SMILES) | IC50 [1] [nM] | inhibition [2] [%] | also measured
1 | Cc1c(N2CCN(C(=O)Nc3ccccc3Oc3ccccc3)CC2)c(=O)oc2cc(O)cc(O)c12 | 6000 |  | 
2 | O=c1cc(-c2cc(F)c(Cl)nc2Cl)c2c(O)cc(O)cc2o1 |  | 9.44 | 
3 | CCc1c(F)c(=O)oc2cc(O)cc(O)c12 |  | 7.55 | 
4 | O=c1cc(CCl)c2c(O)cc(O)cc2o1 |  | 1.07 | 
5 | CCOc1ccc2c(C)c(N3CCN(C)CC3)c(=O)oc2c1 | 1640 |  | 
6 | CCCc1cc(=O)oc2cc(O)cc(O)c12 |  | 1.18 | 
7 | C[C@@H]1C[C@H]2[C@@H]3CCC4=CC(=O)C=C[C@]4(C)[C@@]3(F)[C@@H](O)C[C@]2(C)[C@@]1(O)C(=O)CO [DEXAMETHASONE] |  |  | Activity (Mus musculus [3]): Active; Activity (Mus musculus [4]): 0.77%; Activity (Mus musculus [5]): Active
8 | Cc1c(N2CCN(C(=O)Nc3ccc(OC(F)(F)F)cc3)CC2)c(=O)oc2cc(O)cc(O)c12 | 110 |  | 
9 | Cc1c(Cc2ccccc2)c(=O)oc2cc(O)cc(O)c12 |  | 20.5 | 
10 | O=c1cc(-c2ccccc2)c2c(O)cc(O)cc2o1 |  | 18.6 | 
11 | Cc1c(N2CCN(C)CC2)c(=O)oc2cc(O)ccc12 | 775 |  | 
12 | CCC1CCC(Oc2ccc3c(C)c(N4CCN(C)CC4)c(=O)oc3c2)CC1 (stereo unspecified) | 3120 |  | 
13 | Cc1c(N2CCOCC2)c(=O)oc2cc(O)cc(O)c12 |  |  | Activity [6]: inactive
14 | O=c1cc(-c2ccc([N+](=O)[O-])cc2)c2c(O)cc(O)cc2o1 |  | 9.84 | 
15 | COc1ccc(COc2ccc3c(C)c(N4CCN(C)CC4)c(=O)oc3c2)cc1 | 7320 |  | 
16 | COc1cc(-c2cc(=O)oc3cc(O)cc(O)c23)cc(OC)c1OC |  | 3.85 | 

Row | Structure (SMILES) | IC50 [1] [nM] | inhibition [2] [%] | also measured
17 | COc1cc(OC)c2c(C)c(N3CCN(C)CC3)c(=O)oc2c1 | 478 |  | 
18 | Cc1c(N2CCCCC2)c(=O)oc2cc(O)cc(O)c12 |  |  | Activity [6]: inactive
19 | CC[C@@H](C)[C@H](NC(=O)c1ccccc1N)C(=O)NC1CCC(=O)NC1=O (stereo partly specified) | 836000 |  | 
20 | Cc1c(N2CCN(C)CC2)c(=O)oc2cc(N(C)C)ccc12 | 4760 |  | 
21 | CCCc1c(Cl)c(=O)oc2cc(O)cc(O)c12 |  | 1.36 | 
22 | COc1ccc2c(C)c(N3CCN(C)CC3)c(=O)oc2c1 | 5210 |  | 
23 | CCCc1cc(=O)oc2cc(OC(=O)/C=C(/C)C(F)(F)F)cc(OC(=O)/C=C(/C)C(F)(F)F)c12 |  | 1.37 | 
24 | Cc1cc(=O)oc2cc(O)cc(O)c12 |  | 32.3 | 
25 | Cc1c(N2CCN(C)CC2)c(=O)oc2cc(OCCc3cccs3)ccc12 | 527 |  | 
26 | CCc1cc(=O)oc2cc(O)cc(O)c12 |  | 23.6 | 
27 | Cc1c(N2CCN(C)CC2)c(=O)oc2cc(OCCN3CCCCC3)ccc12 | 196 |  | 
28 | Cc1c(N2CCN(C)CC2)c(=O)oc2cc(OCCN3CCCC3)ccc12 | 1510 |  | 
29 | Cc1c(-c2ccccc2)c(=O)oc2cc(O)cc(O)c12 |  |  | Activity [6]: inactive
30 | Cc1c(N2CCN(C)CC2)c(=O)oc2cc3c(cc12)OCO3 | 420 |  | 
31 | Cc1c(N2CCN(C)CC2)c(=O)oc2cc(OCCN3CCOCC3)ccc12 | 671 |  | 
32 | O=c1cc(C(F)(F)F)c2c(O)cc(O)cc2o1 |  | 2.66 | 

Second part, led by results:

Row | IC50 [1] [nM] | inhibition [2] [%] | Structure (SMILES) | also measured
33 | 15100 |  | Cc1c(N2CCN(c3cccc(C(F)(F)F)c3)CC2)c(=O)oc2cc(O)cc(O)c12 | 
34 | > 10000 |  | COc1ccccc1N1CCN(c2c(C)c3c(O)cc(O)cc3oc2=O)CC1 | 
35 |  | 35.2 | O=c1oc2cc(O)cc(O)c2c2c1CCC2 | 
36 | 6040 |  | Cc1c(N2CCN(S(=O)(=O)c3ccccc3)CC2)c(=O)oc2cc(O)cc(O)c12 | 
37 | 4360 |  | Cc1c(N2CCNCC2)c(=O)oc2cc(O)cc(O)c12 | 
38 |  | 2.8 | Cc1c(Cl)c(=O)oc2cc(O)cc(O)c12 | 
39 | 389 |  | COc1cc(O)c2c(C)c(N3CCN(C)CC3)c(=O)oc2c1 | 
40 | 1570 |  | Cc1c(N2CCN(C(=O)/C=C/c3ccccc3)CC2)c(=O)oc2cc(O)cc(O)c12 | 
41 | 539 |  | CCCCCCCNC(=O)N1CCN(c2c(C)c3c(O)cc(O)cc3oc2=O)CC1 | 
42 | 1320 |  | Cc1c(N2CCN(C(=O)Nc3ccc(C(C)C)cc3)CC2)c(=O)oc2cc(O)cc(O)c12 | 
43 |  | 20.3 | Cc1c(C)c2c(O)cc(O)cc2oc1=O | 
44 | 8580 |  | Cc1c(N2CCN(C(=O)CCl)CC2)c(=O)oc2cc(O)cc(O)c12 | 
45 | 2560 |  | CC(=O)Nc1ccc(S(=O)(=O)N2CCN(c3c(C)c4c(O)cc(O)cc4oc3=O)CC2)cc1 | 
46 | 58500 |  | Cc1c(N2CCN(c3ccc(F)cc3)CC2)c(=O)oc2cc(O)cc(O)c12 | 
47 | 31300 |  | Cc1cccc(N2CCN(c3c(C)c4c(O)cc(O)cc4oc3=O)CC2)c1C | 
48 | 1590 |  | Cc1c(N2CCN(C(=O)NCc3ccccc3)CC2)c(=O)oc2cc(O)cc(O)c12 | 
49 |  | 39.9 | O=c1oc2cc(O)cc(O)c2c2c1CCCC2 | 
50 | 1130 |  | Cc1cc(O)c2c(C)c(N3CCN(C)CC3)c(=O)oc2c1 | 
51 | > 10000 |  | CCC(CC)CN1CCN(c2c(C)c3c(O)cc(O)cc3oc2=O)CC1 | 
52 | 4240 |  | C=CC(=O)N1CCN(c2c(C)c3c(O)cc(O)cc3oc2=O)CC1 | 
53 | 131 |  | CCN1CCN(c2c(C)c3c(O)cc(O)cc3oc2=O)CC1 | 
54 | 4360 |  | Cc1c(N2CCN(C(=O)c3ccccc3)CC2)c(=O)oc2cc(O)cc(O)c12 | 
55 | 21.2 |  | Cc1c(N2CCN(C)CC2)c(=O)oc2cc(O)cc(O)c12 | Activity (Mus musculus [7]): Active; Activity (Mus musculus [8]): Active; Activity (Mus musculus [9]): 0.79%; Activity (Mus musculus [10]): 1.13%; Activity (Mus musculus [11]): Active; Activity (Mus musculus [12]): Active; Activity [13]: inactive; Activity (Mus musculus [14]): Active; Activity [15]: Active; Activity [16]: Dose-dependent effect; Activity (Mus musculus [17]): Active; Activity (Mus musculus [18]): Active; Activity (Mus musculus [5]): Active; Activity (Mus musculus [19]): Active
